Experiment [1] addresses T1, viral reverse transcriptase (Human immunodeficiency virus type 1 group M subtype B, UniProt P04585).
T1 construct: Viral reverse transcriptase is found in extracts from bacterial clones; made in house; host or cells: Escherichia coli (extracts of bacterial clones, by the procedure of Larder et al., EMBO J. 6:3133-3137, 1987)
Nature of the experiment: Viral reverse transcriptase inhibition, cell free assay. Format: biochemical, human immunodeficiency virus (HIV-1). The text has this:
The utility of the diaromatic substituted piperazines (III), the anti-AIDS piperazines (IV) and the indoles (V) of this invention can be determined by their ability to inhibit viral reverse transcriptase, an enzyme essential for human immunodeficiency virus replication. This enzyme has characteristics which differentiate it from other known cellular polymerases and it is a unique enzyme which is not found in uninfected cells. Viral reverse transcriptase is found in extracts from bacterial clones prepared according to the procedure described in AIDS Virus Reverse Transcriptase defined by high level expression in Escherichia coli, EMBO J. 6:3133-3137 (1987). Inhibition of this enzyme is determined in a cell free assay which measures the level of radioactive precursors incorporated into DNA. Extracts prepared according to the procedure of Science, 1125-1129 (1981) are incubated in a mixture of inhibitor, 20 mM dithiothreitol, 60 mM sodium chloride, 0.05% NP-40, 10 mM magnesium chloride, 50 mM Tris pH 8.3, 10 μM [^35 S]-labeled deoxynuleoside-5'-triphosphate, 10 μg/ml RNA template (poly rC or poly rG) and 5 μg/ml DNA primer (oligo dG or oligo dT) for 30 minutes at 37° C. Incorporation of radio-labeled percursor is determined by spotting aliquots of the reaction mixture on DE81 paper, washing the papers to remove unincorporated percursor, drying and determining counts. The results (IC50 means the concentration, in μM of drug, required to inhibit the reverse transcriptase activity to the extent of 50%) of various assay(s) are combined and reported as % inhibition and IC50 (calculated).
^1 Viral reverse transcriptase is found in extracts from bacterial
clones prepared according to the procedure described by Larder, B.,
Purifoy D., Powell, K. and Darby, G., AIDS virus reverse transcriptase
defined by high level expression in Escherichia coli., EMBO J. 6,
3133-3137 (1987). Inhibition of this enzyme is determined in a cell free
assay which measures the level of radioactive precursors incorporated int
DNA. Extracts prepared according to the procedure of Kleid, D. G., et
al., Science, 1125-1129 (1981) are incubated in a mixture of inhibitor, 2
mM dithiothreitol, 60 mM sodium chloride, 0.05% NP40, 10 mM magnesium
chloride, 50 mM Tris pH 8.3, 10 μM [^35 Slabeled
deoxynucleoside5triphosphate, 10 μg/ml RNA template (poly rC or poly
rG) and 5 μg/ml DNA primer (oligo dG or oligo dT) for 15 minutes at
37°. Incorporation of radio labeled precursor is determined by
harvesting the trichloroacetic acid precipitated reaction mixtures on
glass fiber filters, drying, and determining counts. The results of
various assays are combined and reported as % inhibition at a 100 μM

Experiment [2] has as its system HIV in primary human peripheral blood lymphocytes. Put plainly: Primary PBL assay: inhibition of viral replication (p24 & RNA). The following applies: primary human lymphocytes infected with HIV, days three and four, read-out: PBL INHIBITION OF VIRAL REPLICATION (p24 & RNA) ED50. In kind it is cell-based. On the procedure:
^3 The utility of the compounds of the invention is further
infection in primary peripheral blood lymphocytes (primary PBL assay). Th
primary PBL assay offers the following advantages:
(a) The assays are performed with primary human lymphocytes. Thereby,
undesired testing of transformed cell lines is avoided in which host cell
and virus may have undergone processes of mutual adaptation. Performance
of cell culture in serum containing media closely mimics the in vivo
situation. (b) The primary PBL assay distinguishes between true antiviral
effect which is due to the drug and cytostatic/cytotoxic reactions. (c)
Viral replication is precisely followed by kinetic measurement of viral
nucleic acids and proteins. (d) Nucleic acids (total HIVRNA intra and
extracellular) and protein (secreted p24) are measured in parallel which
permits one to differentiate between the compound's effect on virus
replication and on the expression of viral proteins. This leads to
additional information regarding the efficacy of the test compound. (e)
Tolerance of the cell culture against low amounts of organic solvents als
permits the investigation of hydrophobic substances. (f) The dose of the
drug causing half maximal suppression of virus replication is determined.
(g) The screening system is standardized and automated to a high degree.
The primary PBL assay uses the following procedure:
Effects of the compounds of the invention on cell proliferation are determined by lymphocyte proliferation assays. Starting with a 100 micromolar solution, the compound is serially diluted 10 fold. One tenth of the concentration of a compound causing half maximal inhibition of cellular proliferation is employed for all subsequent testing.
Peripheral human lymphocytes are isolated by density gradient centrifugation. After stimulation by mitogen the cells are infected with a standardized preparation of HIV. Subsequently, the infected cells are cultured in the presence of the drug for four days. Individual cultures are established to measure viral replication three and four days following infection. Untreated cells and AZT-treated cells are included as controls in parallel with the drugs under investigation.
The amount of viral core protein p24 synthesized and release by the infected cells is determined in the supernatant by the capture-ELISA technique on days three and four. By comparing with a standard preparation, the amount of protein produced by the virus infected cells is quantified.
The total amount of viral RNA synthesized by the infected lymphocytes is determined by a special nucleic acid hybridization on days three and four of culture. By including a standard preparation of HIV-RNA the amount of synthesized RNA is quantified.
In addition, viability of HIV-infected cells is determined in parallel with assays for viral p24 and RNA. In order to evaluate the half maximal antiviral effect of the drug, a concentration dependency of the drug action is measured.
Numerous examples of the compounds of the invention are assayed according to this procedure. The anti-HIV activity, as measured by the inhibition of the release of core p24 protein in HIV infected human lymphocytes, is used to calculate ED50 -antiviral (the concentration required to give a 50% reduction in p24 synthesis).

The mark [3] stands for this setting: read-out: RT % INHIBITION (100 μM), 100 μM, poly rC or poly rG template.
[4] abbreviates: Human immunodeficiency virus 1, Lymphocyte.

Structures can show the parent of a compound that is named as a salt. Where two headings read alike, the source gives them in different places.

For orientation: inhibition means the drop in the measured response relative to a control, in per cent. In the case of `CC(C)Nc1cccnc1N1CCN(C(=O)c2cc3cc(OCC(=O)O)ccc3[nH]2)CC1` [Example 61, sodium salt], the inhibition at 100 µM in experiment [1] (setting [3]) was 91%. Further, in experiment [2] (setting [4]), the EC50 turned out to be 1000 nM.

Regarding `CC(C)Nc1cccnc1N1CCN(C(=O)c2cc3cc(O)ccc3[nH]2)CC1` [Example 38, 1-[5-Hydroxyindolyl-2-carbonyl]-4-[3-(1-methylethylamino)-2-pyridinyl]piperazine], in experiment [1] (setting [3]), the inhibition at 100 µM lay within 96 to 98%. Further, the EC50 in experiment [2] (setting [4]) is less than 1 nM.

As to `CC(C)Nc1cccnc1N(C)CCCCCCN(C)C(=O)c1cc2ccccc2[nH]1` [Example 54, N,N'-Dimethyl-N-(indolyl-2-carbonyl)-N'-[3-(1-methylethyl-amino)-2-pyridinyl]-1,6-hexanediamine], in experiment [1] (setting [3]), the inhibition at 100 µM lay within 70 to 80%. Moreover, the EC50 in experiment [2] (setting [4]) stood at 100 nM.

Regarding `CC(C)Nc1cccnc1N(C)CCCCN(C)C(=O)c1cc2ccccc2[nH]1` [Example 124, N,N'-Dimethyl-N-(indolyl-2-carbonyl)-N'-[3-(1-methylethyl-amino)-2-pyridyl]-1,4-butanediamine], the inhibition at 100 µM in experiment [1] (setting [3]) came out at 95%. In addition, in experiment [2] (setting [4]), the EC50 is more than 100 nM.

For the compound `CC(C)Nc1ccc(F)cc1N1CCN(C(=O)c2cc3ccccc3[nH]2)CC1` [Example 75, 1-[Indolyl-2-carbonyl]-4-[2-(1-methylethylamino)-5-fluorophenyl]piperazine], the inhibition at 100 µM in experiment [1] (setting [3]) was 77%. Also, the EC50 in experiment [2] (setting [4]) lay in the range of 10 to 100 nM.

For the compound `CCNc1cccnc1N1CCN(C(=O)c2cc3cc(OC)ccc3[nH]2)CC1` [Example 16, 1-[5-Methoxyindolyl-2-carbonyl]-4-[3-(ethylamino)-2-pyridinyl]piperazine], the inhibition at 100 µM in experiment [1] (setting [3]) fell in the range of 85 to 88%. Besides, in experiment [2], the EC50 came out at 3 nM.

With `CC(C)(C)CNc1cccnc1N1CCN(C(=O)c2cc3cc(F)ccc3[nH]2)CC1` [Example 102, 1-[5-Fluoroindolyl-2-carbonyl]-4-[3-(2',2'-dimethylpropylamino)-2-pyridinyl]piperazine], the inhibition at 100 µM in experiment [1] (setting [3]) came to 48%. Moreover, the EC50 in experiment [2] (setting [4]) is 10000 nM.

For the compound `CC(C)Nc1cccnc1OCCN(C)C(=O)c1cc2ccccc2[nH]1` [Example 58, 2-(2-(N-Methyl-N-(indolyl-2-carbonyl)amino)ethoxy)-3-(1-methylethylamino)pyridine], in experiment [1] (setting [3]), the inhibition at 100 µM lay within 94 to 98%. Also, in experiment [2] (setting [4]), the EC50 is less than 100 nM.

Consider `CC(C)Nc1cccnc1N1CCN(C(=O)c2ccc[nH]2)CC1` [Example 69, 1-[Pyrrolyl-2-carbonyl]-4-[3-(1-methylethylamino)-2-pyridinyl]piperazine], for which, in experiment [1] (setting [3]), the inhibition at 100 µM was 95%. The EC50 in experiment [2] (setting [4]) came out at 100 nM.

Turning to `COCC(C)Nc1cccnc1N1CCN(C(=O)c2cc3cc(F)ccc3[nH]2)CC1` (stereo not shown) [Example 106, 1-[5-Fluoroindolyl-2-carbonyl]-4-[3-(2-methoxy-1-methylethylamino)-2-pyridinyl]piperazine], the inhibition at 100 µM in experiment [1] (setting [3]) was 76 to 81%. In experiment [2] (setting [4]), the EC50 is not above 1 nM.

For `CC(C)Nc1cccnc1N1CCN(C(=O)c2cc3cc([N+](=O)[O-])ccc3[nH]2)CC1` [Example 103, 1-[5-Nitroindolyl-2-carbonyl]-4-[3-(1-methylethylamino)-2-pyridinyl]piperazine], the inhibition at 100 µM in experiment [1] (setting [3]) amounted to 72%. Besides, the EC50 in experiment [2] (setting [4]) is less than 10 nM.

`CC(C)Nc1cccnc1N(C)CCN(C)C(=O)c1cc2ccccc2[nH]1` [Example 52, N,N'-Dimethyl-N-(indolyl-2-carbonyl)-N'-(3-(1-methylethylamino)pyrid-2-yl)ethylenediamine]: the inhibition at 100 µM in experiment [1] (setting [3]) lay in the range of 89 to 94%. In experiment [2] (setting [4]), the EC50 fell in the range of 100 to 1000 nM.

Turning to `CC(C)Nc1cccnc1N1CCN(C(=O)c2cc3cc(NS(C)(=O)=O)ccc3[nH]2)CC1` [Example 105, 1-[5-Methanesulfonamidoindolyl-2-carbonyl]-4-[3-(1-methylethylamino)-2-pyridinyl]piperazine], the inhibition at 100 µM in experiment [1] (read-out: RT % INHIBITION (100 μM)) lay in the range of 82 to 96%. Besides, the EC50 in experiment [2] (setting [4]) is not above 1 nM.

Regarding `O=C(c1cc2ccccc2[nH]1)N1CCN(c2ncccc2N2CCCC2)CC1` [Example 76, 1-[Indolyl-2-carbonyl]-4-[3-(1-pyrrolidinyl)-2-pyridinyl]piperazine], the inhibition at 100 µM in experiment [1] (setting [3]) was 65 to 76%. In addition, the EC50 in experiment [2] (setting [4]) lay in the range of 100 to 1000 nM.

Turning to `CC(=O)Nc1ccc2[nH]c(C(=O)N3CCN(c4ncccc4NC(C)C)CC3)cc2c1` [Example 104, 1-[5-Acetamidoindolyl-2-carbonyl]-4-[3-(1-methylethylamino)-2-pyridinyl]piperazine], the inhibition at 100 µM in experiment [1] (setting [3]) was in the range of 92 to 96%. For the same compound, the EC50 in experiment [2] (setting [4]) was 10 nM.

As to `CCNc1cccnc1N1CCN(C(=O)c2cc3ccc(OC)c(C)c3[nH]2)CC1` [Example 71, 1-[6-Methoxy-7-methylindolyl-2-carbonyl]-4-(3-ethylamino-2-pyridinyl)piperazine], the inhibition at 100 µM in experiment [1] (setting [3]) was in the range of 88 to 95%. For the same compound, the EC50 in experiment [2] (setting [4]) is 10 to 100 nM.

With `CC(C)Nc1cc(F)ccc1N1CCN(C(=O)c2cc3ccccc3[nH]2)CC1` [Example 74, 1-[Indolyl-2-carbonyl]-4-[2-(1-methylethylamino)-4-fluorophenyl]piperazine], in experiment [1] (setting [3]), the inhibition at 100 µM is 82 to 84%. The EC50 in experiment [2] (setting [4]) is 10 to 100 nM.

On to `COc1ccc2cc(C(=O)N3CCN(c4ncccc4NC(C)C)CC3)[nH]c2c1Br` [Example 92, 1-[7-Bromo-6-methoxyindolyl-2-carbonyl]-4-[3-(1-methylethyl-amino)-2-pyridinyl]piperazine], for which the inhibition at 100 µM in experiment [1] (setting [3]) is 94%. In addition, in experiment [2] (setting [4]), the EC50 was in the range of 100 to 1000 nM.

For the compound `CC(C)Nc1cccnc1N(C)CCOC(=O)c1cc2ccccc2[nH]1` [Example 55], in experiment [1] (setting [3]), the inhibition at 100 µM fell in the range of 66 to 79%. For the same compound, the EC50 in experiment [2] (setting [4]) is 100 to 1000 nM.

Regarding `CC(C)Nc1nccnc1N1CCN(C(=O)c2cc3cc(F)ccc3[nH]2)CC1` [Example 47, 1-(5-Fluoroindolyl-2-carbonyl)-4-[3-(1-methylethylamino)-2-pyrazinyl]piperazine], the inhibition at 100 µM in experiment [1] (setting [3]) turned out to be 91%. For the same compound, in experiment [2] (setting [4]), the EC50 was in the range of 1 to 10 nM.

The values are drawn from US5563142A, “Diaromatic substituted compounds as anti-HIV-1 agents” (The Upjohn Company, priority 1994, dated 1996).
